The results in this text go back to patent publication US12540131B2 (Merck Sharp & Dohme LLC, priority 2019, dated 2026).

Sequence of GST tagged truncated human mutant G2019S LRRK2 (Q5S007 970-2527 G2019S): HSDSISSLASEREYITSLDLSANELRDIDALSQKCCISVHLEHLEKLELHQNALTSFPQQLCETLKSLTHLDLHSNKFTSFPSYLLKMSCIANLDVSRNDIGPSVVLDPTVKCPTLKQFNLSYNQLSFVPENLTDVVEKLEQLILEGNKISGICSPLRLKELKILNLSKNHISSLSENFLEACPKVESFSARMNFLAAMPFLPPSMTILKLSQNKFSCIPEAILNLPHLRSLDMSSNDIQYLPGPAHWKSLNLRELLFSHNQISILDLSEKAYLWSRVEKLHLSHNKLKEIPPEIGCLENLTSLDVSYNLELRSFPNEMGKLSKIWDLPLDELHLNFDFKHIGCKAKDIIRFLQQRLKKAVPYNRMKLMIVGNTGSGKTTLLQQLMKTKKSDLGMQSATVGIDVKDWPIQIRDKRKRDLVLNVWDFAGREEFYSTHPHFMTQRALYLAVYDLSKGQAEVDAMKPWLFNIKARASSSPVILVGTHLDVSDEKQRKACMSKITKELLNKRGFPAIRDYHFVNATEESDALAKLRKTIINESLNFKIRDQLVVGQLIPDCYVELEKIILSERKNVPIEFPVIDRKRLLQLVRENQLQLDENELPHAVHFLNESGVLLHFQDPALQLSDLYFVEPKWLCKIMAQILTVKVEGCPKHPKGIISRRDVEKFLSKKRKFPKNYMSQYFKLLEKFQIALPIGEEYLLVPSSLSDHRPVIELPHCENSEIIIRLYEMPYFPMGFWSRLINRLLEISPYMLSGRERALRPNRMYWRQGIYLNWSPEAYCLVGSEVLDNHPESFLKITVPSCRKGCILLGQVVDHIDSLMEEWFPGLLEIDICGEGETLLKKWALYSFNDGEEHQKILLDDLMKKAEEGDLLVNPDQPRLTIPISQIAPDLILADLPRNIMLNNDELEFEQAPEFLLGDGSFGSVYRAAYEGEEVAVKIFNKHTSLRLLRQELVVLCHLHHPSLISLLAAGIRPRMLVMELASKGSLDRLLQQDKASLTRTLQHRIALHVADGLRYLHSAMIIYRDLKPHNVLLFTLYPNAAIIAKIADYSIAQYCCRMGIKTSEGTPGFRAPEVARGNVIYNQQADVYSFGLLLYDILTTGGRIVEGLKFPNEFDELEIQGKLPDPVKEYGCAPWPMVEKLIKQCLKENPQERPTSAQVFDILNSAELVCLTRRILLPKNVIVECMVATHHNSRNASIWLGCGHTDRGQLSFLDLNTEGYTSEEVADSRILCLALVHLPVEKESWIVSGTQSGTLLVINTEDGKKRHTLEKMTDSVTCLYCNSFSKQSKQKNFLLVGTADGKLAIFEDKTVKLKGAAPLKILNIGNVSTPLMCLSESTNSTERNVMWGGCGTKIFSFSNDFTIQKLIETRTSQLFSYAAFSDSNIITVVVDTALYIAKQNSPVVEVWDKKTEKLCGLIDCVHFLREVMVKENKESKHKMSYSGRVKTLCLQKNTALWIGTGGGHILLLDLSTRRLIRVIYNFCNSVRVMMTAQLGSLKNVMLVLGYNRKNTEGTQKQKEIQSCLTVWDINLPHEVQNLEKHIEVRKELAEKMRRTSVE

The first experiment has as its target GST tagged truncated human mutant G2019S LRRK2 (Homo sapiens (Human), UniProt Q5S007, G2019S). Description: LRRK2 Km ATP LanthaScreen Assay. It is filed as biochemical. The settings on record: G2019S LRRK2, 134 μM ATP (Km ATP), mean values. An outline of the steps: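 Enzyme (GST-tagged, truncated) was preincubated with compound for 15 min at RT in 50 mM Tris pH 8.5, 10 mM MgCl2, 0.01% Brij-35, 1 mM EGTA, 2 mM DTT and 0.05 mM orthovanadate. Fluorescein-LRRKtide and 134 μM ATP (Km) were then added for 90 min. EDTA and Tb-anti-pERM antibody stopped the reaction; the TR-FRET 520/495 ratio gave 4-parameter IC50s, reported as mean pIC50.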
Turning to `CC(n1ncc(Nc2ncc3cc(Cl)c(C4CCN(C5COC5)CC4)cc3n2)c1Cl)C(C)(C)O` (single isomer, unassigned) [Ex-4.62, (8) or (R) 3-[5-chloro-4-({6-chloro-7-[1-(oxetan-3-yl)piperidin-4-yl]quinazolin-2-yl}amino)-1H-pyrazol-1-yl]-2-methylbutan-2-ol], the “LRRK2 pIC50” value is reported as >9.20.

Take `Cc1c(Nc2ncc3cc(Cl)c([C@@H]4CCN(C5COC5)C[C@H]4F)cc3n2)cnn1CC(C)(C)O` (single isomer, unassigned) [Ex-4.63, (3S,4S) or (3R,4R) 1-[4-({6-chloro-7-[3-fluoro-1-(oxetan-3-yl)piperidin-4-yl]quinazolin-2-yl}amino)-5-methyl-1H-pyrazol-1-yl]-2-methylpropan-2-ol]: the “LRRK2 pIC50” value is 8.83.

Take `Cc1c(Nc2ncc3cc(Cl)c([C@H]4CCN(C5COC5)C[C@@H]4F)cc3n2)cnn1CC(C)(C)O` (single isomer, unassigned) [Ex-4.64, (3S,4S) or (3R,4R) 1-[4-({6-chloro-7-[3-fluoro-1-(oxetan-3-yl)piperidin-4-yl]quinazolin-2-yl}amino)-5-methyl-1H-pyrazol-1-yl]-2-methylpropan-2-ol]: the “LRRK2 pIC50” value is listed as 8.85.

For `CC(n1ncc(Nc2ncc3cc(Cl)c([C@@H]4CCN(C5COC5)C[C@H]4F)cc3n2)c1Cl)C(C)(C)O` (single isomer, unassigned) [Ex-4.65, (R)(3S,4S) or (R)(3R,4R) or (S)(3S,4S) or (S)(3R,4R) 3-[5-chloro-4-({6-chloro-7-[3-fluoro-1-(oxetan-3-yl)piperidin-4-yl]quinazolin-2-yl}amino)-1H-pyrazol-1-yl]-2-methylbutan-2-ol], the “LRRK2 pIC50” value amounted to 8.91.

As for `CC(n1ncc(Nc2ncc3cc(Cl)c([C@H]4CCN(C)C[C@@H]4F)cc3n2)c1Cl)C(C)(C)O` (single isomer, unassigned) [Ex-4.66, (R)(3S,4S) or (R)(3R,4R) or (S)(3S,4S) or (S)(3R,4R) 3-(5-chloro-4-{[6-chloro-7-(3-fluoro-1-methylpiperidin-4-yl)quinazolin-2-yl]amino}-1H-pyrazol-1-yl)-2-methylbutan-2-ol], the “LRRK2 pIC50” value turned out to be 8.70.

As to `CC(n1ncc(Nc2ncc3cc(Cl)c([C@H]4CCN(C)C[C@@H]4F)cc3n2)c1Cl)C(C)(C)O` (single isomer, unassigned) [Ex-4.68, (R)(3S,4S) or (R)(3R,4R) or (S)(3S,4S) or (S)(3R,4R) 3-(5-chloro-4-{[6-chloro-7-(3-fluoro-1-methylpiperidin-4-yl)quinazolin-2-yl]amino}-1H-pyrazol-1-yl)-2-methylbutan-2-ol], the “LRRK2 pIC50” value stood at 8.92.

For the compound `CC(n1ncc(Nc2ncc3cc(Cl)c([C@@H]4CCN(C5COC5)C[C@H]4F)cc3n2)c1Cl)C(C)(C)O` (single isomer, unassigned) [Ex-4.69, (R)(3S,4S) or (R)(3R,4R) or (S)(3S,4S) or (S)(3R,4R) 3-[5-chloro-4-({6-chloro-7-[3-fluoro-1-(oxetan-3-yl)piperidin-4-yl]quinazolin-2-yl}amino)-1H-pyrazol-1-yl]-2-methylbutan-2-ol], the “LRRK2 pIC50” value is recorded as 9.13.

With `CC1OCC1N1CC[C@@H](c2cc3nc(Nc4cnn(CC(C)(C)O)c4Cl)ncc3cc2Cl)[C@H](F)C1` (single isomer, unassigned) [Ex-4.70, (3S,4S)(2R,3R) or (3S,4S)(2S,3S) or (3R,4R)(2R,3R) or (3R,4R)(2S,3S) or (3R,4R)(2S,3R) or (3R,4R)(2R,3S) or (3S,4S)(2S,3R) or (3S,4S)(2R,3S) 1-[5-chloro-4-({6-chloro-7-[3-fluoro-1-(2-methyloxetan-3-yl)piperidin-4-yl]quinazolin-2-yl}amino)-1H-pyrazol-1-yl]-2-methylpropan-2-ol], the “LRRK2 pIC50” value came to 7.92.

As for `CC1OCC1N1CC[C@@H](c2cc3nc(Nc4cnn(CC(C)(C)O)c4Cl)ncc3cc2Cl)[C@H](F)C1` (single isomer, unassigned) [Ex-4.71, (3S,4S)(2R,3R) or (3S,4S)(2S,3S) or (3R,4R)(2R,3R) or (3R,4R)(2S,3S) or (3R,4R)(2S,3R) or (3R,4R)(2R,3S) or (3S,4S)(2S,3R) or (3S,4S)(2R,3S) 1-[5-chloro-4-({6-chloro-7-[3-fluoro-1-(2-methyloxetan-3-yl)piperidin-4-yl]quinazolin-2-yl}amino)-1H-pyrazol-1-yl]-2-methylpropan-2-ol], the “LRRK2 pIC50” value worked out at 7.74.

As to `CC1OCC1N1CC[C@H](c2cc3nc(Nc4cnn(CC(C)(C)O)c4Cl)ncc3cc2Cl)[C@@H](F)C1` (single isomer, unassigned) [Ex-4.73, (3S,4S)(2R,3R) or (3S,4S)(2S,3S) or (3R,4R)(2R,3R) or (3R,4R)(2S,3S) or (3R,4R)(2S,3R) or (3R,4R)(2R,3S) or (3S,4S)(2S,3R) or (3S,4S)(2R,3S) 1-[5-chloro-4-({6-chloro-7-[3-fluoro-1-(2-methyloxetan-3-yl)piperidin-4-yl]quinazolin-2-yl}amino)-1H-pyrazol-1-yl]-2-methylpropan-2-ol], the “LRRK2 pIC50” value amounted to 9.13.

Consider `CC1OCC1N1CC[C@H](c2cc3nc(Nc4cnn(CC(C)(C)O)c4Cl)ncc3cc2Cl)[C@@H](F)C1` (single isomer, unassigned) [Ex-4.74, (3S,4S)(2R,3R) or (3S,4S)(2S,3S) or (3R,4R)(2R,3R) or (3R,4R)(2S,3S) or (3R,4R)(2S,3R) or (3R,4R)(2R,3S) or (3S,4S)(2S,3R) or (3S,4S)(2R,3S) 1-[5-chloro-4-({6-chloro-7-[3-fluoro-1-(2-methyloxetan-3-yl)piperidin-4-yl]quinazolin-2-yl}amino)-1H-pyrazol-1-yl]-2-methylpropan-2-ol], for which the “LRRK2 pIC50” value is 9.19.

Regarding `CC1OCC1N1CCC(c2cc3nc(Nc4cnn(CC(C)(C)O)c4Cl)ncc3cc2Cl)CC1` (single isomer, unassigned) [Ex-4.75, (2R,3R) or (2S,3S) or (2S,3R) or (2R,3S) 1-[5-chloro-4-({6-chloro-7-[1-(2-methyloxetan-3-yl)piperidin-4-yl]quinazolin-2-yl}amino)-1H-pyrazol-1-yl]-2-methylpropan-2-ol], the “LRRK2 pIC50” value came to 8.14.

With `CC1OCC1N1CCC(c2cc3nc(Nc4cnn(CC(C)(C)O)c4Cl)ncc3cc2Cl)CC1` (single isomer, unassigned) [Ex-4.76, (2R,3R) or (2S,3S) or (2S,3R) or (2R,3S) 1-[5-chloro-4-({6-chloro-7-[1-(2-methyloxetan-3-yl)piperidin-4-yl]quinazolin-2-yl}amino)-1H-pyrazol-1-yl]-2-methylpropan-2-ol], the “LRRK2 pIC50” value is reported as >9.20.

Consider `Cc1cc2cnc(Nc3cnn(CC(C)(C)O)c3Cl)nc2cc1[C@@H]1CCN(C2COC2)C[C@H]1F` (single isomer, unassigned) [Ex-4.81, (3S,4S) or (3R,4R) 1-[5-chloro-4-({7-[3-fluoro-1-(oxetan-3-yl)piperidin-4-yl]-6-methylquinazolin-2-yl}amino)-1H-pyrazol-1-yl]-2-methylpropan-2-ol], for which the “LRRK2 pIC50” value is reported as 9.13.

In the case of `Cc1cc2cnc(Nc3cnn(C4CC4)c3Cl)nc2cc1[C@@H]1CCN(C2COC2)C[C@H]1F` (single isomer, unassigned) [Ex-4.82, (3S,4S) or (3R,4R) N-(5-chloro-1-cyclopropyl-1H-pyrazol-4-yl)-7-[3-fluoro-1-(oxetan-3-yl)piperidin-4-yl]-6-methylquinazolin-2-amine], the “LRRK2 pIC50” value is recorded as >9.20.

As for `Cc1cc2cnc(Nc3cnn(CC(C)(C)O)c3Cl)nc2cc1[C@H]1CCN(C2COC2)C[C@@H]1F` (single isomer, unassigned) [Ex-4.83, (3S,4S) or (3R,4R) 1-[5-chloro-4-({7-[3-fluoro-1-(oxetan-3-yl)piperidin-4-yl]-6-methylquinazolin-2-yl}amino)-1H-pyrazol-1-yl]-2-methylpropan-2-ol], the “LRRK2 pIC50” value turned out to be 9.14.

As to `Cc1cc2cnc(Nc3cnn(C4CC4)c3Cl)nc2cc1[C@H]1CCN(C2COC2)C[C@@H]1F` (single isomer, unassigned) [Ex-4.85, (3S,4S) or (3R,4R) N-(5-chloro-1-cyclopropyl-1H-pyrazol-4-yl)-7-[3-fluoro-1-(oxetan-3-yl)piperidin-4-yl]-6-methylquinazolin-2-amine], the “LRRK2 pIC50” value is given as 8.76.

The experiment is the same for the next values; noted with them: G2019S LRRK2, 134 μM ATP (Km ATP), mean values; read-out: LRRK2 pIC50 (converted).
In the case of `CC(n1ncc(Nc2ncc3cc(Cl)c(C4CCN(C5COC5)CC4)cc3n2)c1Cl)C(C)(C)O` (single isomer, unassigned) [Ex-4.67, (S) or (R) 3-[5-chloro-4-({6-chloro-7-[1-(oxetan-3-yl)piperidin-4-yl]quinazolin-2-yl}amino)-1H-pyrazol-1-yl]-2-methylbutan-2-ol], the IC50 was < 0.631 nM.

Regarding `CC(C)(O)Cn1ncc(Nc2ncc3cc(Cl)c(C4CCN(C5CCOC5)CC4)cc3n2)c1Cl` (single isomer, unassigned) [Ex-4.77, (S) or (R) 1-[5-chloro-4-({6-chloro-7-[1-(oxolan-3-yl)piperidin-4-yl]quinazolin-2-yl}amino)-1H-pyrazol-1-yl]-2-methylpropan-2-ol], the IC50 is 1.82 nM.

As for `CC(C)(O)Cn1ncc(Nc2ncc3cc(Cl)c(C4CCN(C5CCOC5)CC4)cc3n2)c1Cl` (single isomer, unassigned) [Ex-4.79, (S) or (R) 1-[5-chloro-4-({6-chloro-7-[1-(oxolan-3-yl)piperidin-4-yl]quinazolin-2-yl}amino)-1H-pyrazol-1-yl]-2-methylpropan-2-ol], the IC50 was < 0.631 nM.

With `Cc1nsc(Nc2ncc3cc(Cl)c([C@@H]4CCN(C5COC5)C[C@H]4F)cc3n2)c1Cl` (single isomer, unassigned) [Ex-4.87, (3S,4S) or (3R,4R) 6-chloro-N-(4-chloro-3-methyl-1,2-thiazol-5-yl)-7-[3-fluoro-1-(oxetan-3-yl)piperidin-4-yl]quinazolin-2-amine], the IC50 is 12.6 nM.
